This is an account of results in US20160158231A1, “PYRIMIDINE HYDROXY AMIDE COMPOUNDS FOR TREATING PERIPHERAL NEUROPATHY” (VIB VZW, priority 2014, published 2016).

Each structure is given as a SMILES string. “Also recorded” adds a separate entry of the source.

Data set [1] is described as follows: Rat pharmacokinetic studies. The format is in vivo. The note with it: plasma, male SD rats, IV 1 mg/kg. As to the method:
Male SD rats were fasted overnight. Compounds A and B were dissolved in dimethyl acetamide at 10 times the final concentration, then Solutol HS 15 (BASF) was added to a final concentration of 10%. Finally 80% saline was added and vortexed to achieve a clear solution. For the IV dosing three animals were injected via the foot dorsal vein with 1 mg/kg compound. For the PO dosing 5 mg/kg of compound was delivered by oral gavage. Blood was collected via the tail vein into K2EDTA tubes at 5 minutes, 15 minutes, 30 minutes, 1 hour, 2 hours, 4 hours, 8 hours and 24 hours after dosing. The blood was centrifuged at 2000 g for 5 minutes at 4° C. to obtain plasma. The plasma was extracted with acetonitrile and the level of compound was analyzed by LC/MS/MS. The level of compound in plasma was calculated from a standard curve in rat plasma. The IV clearance and area under the curve were calculated using WinNonLin software. The dose adjusted area under the curve for the IV and oral dosing were used to calculate the oral bioavailability.

Data set [2] concerns HDAC6 (acetylated α-tubulin) in Neuro2a cells. Kind of data set: Acetylated α-tubulin in Neuro2a cells (Western blot, staining): potency to inhibit HDAC6. The note with it: for acetylated α-tubulin levels on Western blot / acetylated α-tubulin, staining of treated cells: 1 μM; for acetylated α-tubulin levels on Western blot: compared to DMSO; for acetylated α-tubulin, staining of treated cells: immunofluorescent staining; for relative potency to increase acetylated α-tubulin (dose-response): Western blot, different concentrations. A general note: In western blotting, separated proteins are transferred to a membrane and probed.

Data set [3] relates to taxol-induced neuropathic pain model in rats. In words: Taxol-induced neuropathic pain model in rats (Von Frey test). It is filed as in vivo, rat. As to the method: A study was conducted to extend the previous findings in the vincristine model to a different model of chemotherapy-induced neuropathy, the taxol-induced neuropathic pain model in rats.
Neuropathic pain is induced by a 0.5 ml/kg injection of taxol (2 mg/kg) administered IP on days 0-12. The development of neuropathic pain is confirmed by measuring mechanical allodynia (Von Frey test) on study day 13 as described above.
Pain was assessed using Von-Frey (VF) test for tactile allodynia on study days 13-15. The Rotarod Test was used to assess motor/coordination function.
Neuropathic pain was induced by a 0.5 ml/kg injection of taxol (2 mg/kg) administered IP on study days 0-12. The development of neuropathic pain was confirmed by measuring mechanical allodynia (Von Frey test) on study day 13.

Data set [4] has as its system acetylated histone 3 (H3) in Neuro2a cells. In words: Acetylation status of histone 3 in Neuro2a cells: selectivity. It is filed as cell-based, mouse. The note with it: 1 μM; for acetylation of H3 on Western blot: ratio acetylated H3/H4 normalized to DMSO.
Data set [5] is described as follows: Mouse pharmacokinetic studies (plasma and brain). It is filed as in vivo. The note with it: male, C57BL/6, mouse, iv, 1 mg/kg, read-out: Mouse brain to plasma ratio. As to the method: Male C57BL/6 mice were fasted overnight. Compounds A and B were dissolved in dimethyl acetamide at 10 times the final concentration, then Solutol HS 15 (BASF) was added to a final concentration of 10%. Finally 80% saline was added and vortexed to achieve a clear solution. Fifteen animals were injected via the tail vein with 1 mg/kg compound. Blood was collected by retro-orbital bleed at 5 minutes, 15 minutes, 30 minutes, 1 hour, 2 hours, 4 hours, 8 hours and 24 hours after dosing. At 5 minutes, 30 minutes, 1 hour and 4 hours after dosing three animals per time point were sacrificed and brains were removed. The blood was centrifuged at 2000 g for 5 minutes at 4° C. to obtain plasma. Brain samples were homogenized in PBS. The plasma and brain homogenate were extracted with acetonitrile and the level of compound was analyzed by LC/MS/MS. The level of compound in plasma was calculated from a standard curve in rat plasma and the level in brain was calculated from a standard curve in brain homogenate. The area under the curve in plasma and brain were calculated using WinNonLin software. The brain to plasma ratio was determined using the area under the curve values for the two compartments.

For data set [6], the system named is HSPB1^S135F DRG neurons. In words: Axonal transport of mitochondria in DRG neurons cultured from HSPB1 S135F mice. The format is cell-based, mouse. To be noted: 2.5 μM; for amount of stationary mitochondria / number of moving mitochondria in the neurites / number of total mitochondria in the neurites: vs DMSO. From the text:
Both compounds were able to increase the number of moving mitochondria in the neurites of HSPB1^S135F DRG neurons (FIGS. 4A and 4D).

Data set [7] deals with C57B16/J mice, vincristine-induced sensory neuropathy. It is filed as in vivo, mouse. As to the method:
To study whether treatment with vincristine in vivo could induce a peripheral neuropathy, C57B16/J mice were injected intraperitoneally with vincristine on a daily basis. First, the animals were injected with different doses of vincristine. As sensory rather than motor problems are more pronounced in vincristine associated neuropathy patients, the Sensory Nerve Action Potentials (SNAPs) of the dorsal caudal tail nerve were first evaluated (FIG. 6A).
These animals were co-treated with vincristine and a selective HDAC6-inhibitor (Tubastatin A) to study the therapeutic potential of HDAC6-inhibition. […] A motor phenotype in our mice after vincristine treatment was not detected (results not shown).

Data set [8] concerns vincristine-induced neuropathic pain model in rats. Kind of data set: Vincristine-induced neuropathic pain model in rats (Von Frey test). It is filed as in vivo, rat. As to the method:
Neuropathic pain is induced by injecting 5 ml/kg Vincristine (50 μg/kg) administered daily IP for a period of 12 days. The development of neuropathic pain is confirmed by measuring of mechanical allodynia (Von Frey test) on study day 13.
Allodynic response to tactile stimulation is assessed using the Von Frey apparatus (Touch Test®).
The rat will be placed in an enclosure and positioned on a metal mesh surface, but allowed to move freely. The rats' cabins are covered with red cellophane to diminish environmental disturbances. The test begins after a cessation of exploratory behavior. The set of Von Frey monofilaments provide an approximate logarithmic scale of actual force and a linear scale of perceived intensity.
The operating principle: when the tip of a fiber of given length and diameter is pressed against the skin at right angles, the force of application increases as long as the researcher continues to advance the probe until the fiber bends. After the fiber bends, the probe continues to advance, causing the fiber to bend more, but without additional force being applied. […] The Touch Test™ Sensory Evaluator can be used on the plantar surfaces of the rat's foot. The animal indicates sensation by pulling back its paw. The minimal force needed to elevate the withdrawal reflex is considered/designated as the value of reference. In order to achieve paw withdrawal, the pressure applied is sometimes greater than 60 g, often requiring the researcher to apply enough pressure with the Von Frey filament to actually lift the paw of the naive animal. Decreases in force needed to induce withdrawal are indicative of allodynia, as the force applied is a non-painful stimulus under normal conditions.

Data set [9] deals with mutant HSPB1^S135F mice. Kind of data set: Motor and sensory deficits of mutant HSPB1 S135F mice (CMT2 model). The format is in vivo, mouse. To be noted: 3 mg/kg, daily IP injection, symptomatic animals. The text has this:
From the age of 6 months on, mutant HSPB1^S135F mice display motor and sensory deficits (d'Ydewalle et al., 2011). […] A positive trend for all the compounds tested was observed.

Data set [10] has as its system mutant HSPB1^S135F mice. The note with it: d'Ydewalle et al., 2011; cited from earlier work.
The test system of data set [11] is HSPB1^S135F DRG neurons. The note with it: d'Ydewalle et al., 2011; cited from earlier work.

Broadly, the clearance is the rate of elimination divided by the concentration. The low end stands for a low capacity for elimination, the high end for a high capacity for elimination.

In data set [1], `O=C(NO)c1cnc(NC2(c3ccccc3)CC2)nc1` [Compound A, N-hydroxy-2-((1-phenylcyclopropyl)amino)pyrimidine-5-carboxamide] had a clearance of 100 mL/min/kg. Besides, in [2], the “acetylated α-tubulin levels on Western blot” value is listed as “significant increase” and the “acetylated α-tubulin, staining of treated cells” value (shortened to “acetylated α-tubulin, staining”) is on record as “increased levels”. In addition, the “Von Frey withdrawal force” value in data set [3] (3 mg/kg PO b.i.d., 2 hours post dosing, study day 15, vehicle 13.21±1.49 g) was 53.20 ± 2.78 g. Further, the “Von Frey withdrawal force” value in data set [3] (10 mg/kg PO b.i.d., study day 13 post dosing, vehicle 15.33±2.13 g) stood at 53.11 ± 4.77 g. In data set [3] (doses of 3 mg/kg and 10 mg/kg), the “reversing pain (conclusion)” value is “active in reversing pain”. For the same compound, the “acetylation of H3 on Western blot” value in data set [4] is listed as “do not change”. The Kp in data set [5] was 1.23. Besides, in the data set on HSPB1^S135F DRG neurons [6], the “levels of acetylated α-tubulin in the neurites (staining)” value is listed as “increased”, the “amount of stationary mitochondria” value is given as “remains unchanged”, the “number of moving mitochondria in the neurites” value is “increase” and the “number of total mitochondria in the neurites” value is listed as “increase”. Moreover, the “sensory neuropathy induced by vincristine (SNAP)” value in data set [7] (25 mg/kg/day intraperitoneal, one week, co-treatment with vincristine) was “seems to reduce the sensory neuropathy”. In data set [8] (3 mg/kg PO b.i.d.), the “increasing the withdrawal force (Von Frey)” value is given as “not active”. In addition, the animals waking ability result in data set [8] (3 mg/kg and 10 mg/kg PO starting from study day 7) is “trend of improvement”. The “Von Frey withdrawal force” value in data set [8] (10 mg/kg PO b.i.d., study day 13, vehicle 9.45±0.66 g, ns) was determined as 11.00 ± 1.07 g. The “Von Frey withdrawal force” value in data set [8] (10 mg/kg PO b.i.d., study day 15, vehicle 14.50±1.51 g, p<0.05) stood at 33.85 ± 6.96 g. Moreover, the “Von Frey force” value in data set [8] (10 mg/kg, study days 14-15) is “significantly decreased”.

In the case of `O=C(NO)c1cnc(NC2(c3cccc(F)c3)CCCCC2)nc1` [Compound B, 2-((1-(3-fluorophenyl)cyclohexyl)amino)-N-hydroxypyrimidine-5-carboxamide], in data set [1], the clearance is 38.3 mL/min/kg. Further, in data set [2], the “acetylated α-tubulin levels on Western blot” value is given as “significant increase”; the “acetylated α-tubulin, staining” value is listed as “increased levels”; the “relative potency to increase acetylated α-tubulin (dose-response)” value was “more potent”. For the same compound, the “acetylation of H3 on Western blot” value in data set [4] is given as “do not change”. Moreover, in data set [5], the Kp is 1.28. In addition, in the data set with HSPB1^S135F DRG neurons [6], the “levels of acetylated α-tubulin in the neurites (staining)” value is listed as “increased”, the “amount of stationary mitochondria” value is “remains unchanged”, the “number of moving mitochondria in the neurites” value was “increase” and the “number of total mitochondria in the neurites” value is given as “increase”. Further, the “amplitude of the compound muscle action potential (CMAP)” value with mutant HSPB1^S135F mice [9] is given as “statistical significant rescue; also recorded: can restore”.

`NCC1(CC(=O)O)CCCCC1` [Gabapentin, reference compound]: the “Von Frey withdrawal force” value in [3] (150 mg/kg IP, 2 hours post dosing, study day 15, vehicle 13.21±1.49 g) was found to be 54.90 ± 3.63 g; in data set [8] (150 mg/kg IP, study day 15, vehicle 14.50±1.51 g), 43.95 ± 5.00 g.

With `CC(/C=C/C(=O)NO)=C\[C@@H](C)C(=O)c1ccc(N(C)C)cc1` [TSA, Trichostatin A, reference compound], in data set [2], the “acetylated α-tubulin, staining” value is recorded as “increased levels” and the “relative potency to increase acetylated α-tubulin (dose-response)” value was “more potent”. Also, the “acetylated H3 in nuclei, staining of treated cells” value in data set [4] (immunofluorescent staining) was “more acetylated H3”. For the same compound, the “acetylation of H3 on Western blot” value in [4] is listed as “increases”. Besides, the “restoration of motor and sensory defects” value in the data set on mutant HSPB1^S135F mice [10] is given as “can be restored”.

As to `CN1CCc2c(c3ccccc3n2Cc2ccc(C(=O)NO)cc2)C1` [Tubastatin A], in the data set with HSPB1^S135F DRG neurons [11], the “rescue of the axonal transport defect of mitochondria” value is given as “could be rescued”. In addition, in the data set with mutant HSPB1^S135F mice [10], the “restoration of motor and sensory defects” value is on record as “can be restored”. The “amplitude of the compound muscle action potential (CMAP)” value in the data set with mutant HSPB1^S135F mice [9] is on record as “can restore”.

Turning to `CC[C@]1(O)C[C@H]2CN(CCc3c([nH]c4ccccc34)[C@@](C(=O)OC)(c3cc4c(cc3OC)N(C=O)[C@H]3[C@@](O)(C(=O)OC)[C@H](OC(C)=O)[C@]5(CC)C=CCN6CC[C@]43[C@@H]65)C2)C1` [vincristine], the “reduction in SNAP amplitude compared to vehicle treated mice” value in data set [7] (C57B16/J, mouse, in vivo, ip, 7 days) is 35.4%. Also, the motor phenotype result in data set [7] (mouse, in vivo) was “not detected”. Further, the SNAP latencies entry in [7] (mouse, in vivo, ip) was “unaffected”.
